{"source": "patent US12636373B2", "about": "“Prodrugs with a tridentate self-immolative linker” (The General Hospital Corporation, priority 2018, dated 2026)", "key": {"[1]": {"system": "HT1080-EB3-mApple cells", "experiment": "EB3 microtubule comet imaging in live cells", "type": "cell-based, human", "conditions": "24 h; for microtubule comets (prevalence and growth speed): individual treatment, 1 μM MMAE or C16proMMAE, 35 μM Pd-NP", "experimental": "Microtubule imaging. EB3 tracking was performed using an FV1000 confocal laser scanning microscope on a 37° C. heated stage, with XLUMPLFLN 20× (NA 1.0) or LUMFLN 60× (NA 1.1) water-immersion objectives, 1-10× digital zoom, 559-nm diode laser, and BA575-620 emission filter (all Olympus America). […] EB3 tracks were automatically identified and analyzed from time-lapse datasets using u-track software,^35 with tuning of maximum gap number and minimum frame number across datasets to account for differences in image quality; ambiguous and spurious tracks and artifacts were excluded according to requirements for directional continuity (directional persistence as net displacement/path length>0.8) and movement (value>3 pixels). Speed was determined between frames in each track and averaged for each track by computing the mean of the middle 80% of between-frame values. Track overlay figures were produced using a custom python script. Averaged track speeds excluded outliers falling more than 1.5× the interquartile range for each biological replicate."}, "[2]": {"experiment": "Nano-encapsulation (loading) efficiency, PLGA-PEG nanoprecipitation", "type": "physicochemical", "conditions": "PLGA-PEG polymeric micellar formulation", "experimental": "Initial experiments determined up to 1 mg of C16 prodrug could be used with the same polymer composition with no detectable loss in loading efficiency. For fluorescence-based imaging and flow-cytometric detection of NP uptake, PLGA-BODIPY630 was used instead of PLGA (described previously).^5 NP drug and Pd compound loadings were determined by absorbance (Nanodrop spectrophotometer), interpolation from a standard curve (R^2>0.99) after 1:10 dilution in DMF. Size and zeta potential measurements were performed using dynamic light scattering (Malvern Zetasizer). Prodrug loading efficiency is defined as the fraction of initial drug used in the nano-precipitation reaction that was successfully encapsulated and recovered in final NP product."}, "[3]": {"conditions": "cited from earlier work"}, "[4]": {"system": "HT1080 fibrosarcoma cancer cells", "experiment": "Resazurin-based cytotoxicity assay, 72 h", "description": "In vitro NP characterization: 5,000 cells per well were added to 96-well plates for cytotoxicity assessment; cells were treated after overnight seeding with compound or the appropriate buffer control (drug-free PLGA-PEG NP), and assessed for viability 72 h later using PrestoBlue (Life Technologies) following the manufacturer's protocol."}, "[5]": {"experiment": "Body weight and blood chemistry of treated tumor-bearing animals", "type": "in vivo, mice", "conditions": "dual Pd-NP and C16proMMAE", "experimental": "(§1) Cell lines and animal models: All animal research was performed in accordance with guidelines from the Institutional Subcommittee on Research Animal Care. HT1080 xenografts were generated by 2 million cells implanted subcutaneously in flanks of 6-8 week old female nu/nu mice (Cox7/MGH) in 50 μl PBS. MC38 syngeneic tumors were formed by intradermal implantation of 2 million cells in 50 μl PBS, in the flanks of 7-12 week old female C57BL/6 mice (JAX), following previously described inoculation protocols.^33 Four blinded caliper measurements per tumor were used to measure tumor size according to the formula V=(width)^2(length)/2; animals were randomly assigned to treatment groups. Experiments build on prior imaging, biodistribution, and longitudinal tumor growth data that likewise guided determination of experimental sample sizes.^5, 30 Treatment began approximately 3 weeks post-implantation once tumors reached an average diameter of 5.5±1.8 mm in the HT1080 model (mean±std. dev.; n=72), and roughly 2 weeks post-implantation in the MC38 model once tumors reached an average diameter of 5.45±1.2 mm (mean±std. dev.; n=14). […] Blood chemistry readouts were measured from plasma collected in heparinized tubes by terminal cardiac puncture under vaporized isoflurane anesthesia, using the MGH Veterinary Clinical Pathology lab and the automated DriChem blood chemistry analyzer (Heska). […]"}, "[6]": {"experiment": "In vitro NP prodrug release in PBS", "type": "physicochemical", "conditions": "over 72 h at 37° C. in PBS", "experimental": "Transmission electron microscopy (TEM) was performed in the Microscopy Core of the Center for Systems Biology/Program in Membrane Biology (MGH). […] Excess solution was blotted, grids were stained with phosphotungstic acid, and then blotted, dried and imaged. In vitro NP prodrug release was performed by incubating in PBS at 37° C., separating NPs using a 30 kDa molecular weight cutoff filter (Millipore Amicon) after 72 h, and measuring flow-through for drug content by absorbance (Nanodrop). NP was dissolved in DMF and also measured for drug content by absorbance. Pd-NP, Alloc2R110 and its nanoformulation, and all Pd compounds were synthesized and characterized as previously described.^5"}, "[7]": {"system": "MC38 murine colon adenocarcinoma tumors", "experiment": "MC38 syngeneic tumor growth", "type": "in vivo, C57BL/6 mice", "conditions": "combined with Pd-NP", "experimental": "as §1"}, "[8]": {"system": "panel of 4 cancer cell lines", "experiment": "Cytotoxicity across a panel of cancer cell lines, 72 h", "type": "cell-based", "conditions": "prodrug alone, concentrations ≤10 μM"}, "[9]": {"system": "subcutaneous HT1080 xenograft tumors", "experiment": "HT1080 xenograft tumor growth", "type": "in vivo, nu/nu mice", "experimental": "as §1"}}, "note": "Where a SMILES comes first, the peptide text is derived from it. [ ]: non-standard residue; d: D form. The star is where a group is joined. ξ: configuration not given here. Dolaproine = CO[C@@H]([C@@H]1CCCN1)[C@@H](C)C(=O)O; X1 = C=CCOC(=O)Nc1ccc(C(OC(=O)*)C(=O)NCC)cc1; Dil = CC[C@H](C)[C@H](NC)[C@@H](CC(=O)O)OC; X2 = C[C@@H](N*)[C@@H](O)c1ccccc1; NMeV = CN[C@H](C(=O)O)C(C)C; ξV = CC(C)C(N)C(=O)O", "data": [{"smiles": "CC[C@H](C)[C@@H]([C@@H](CC(=O)N1CCC[C@H]1[C@H](OC)[C@@H](C)C(=O)N[C@H](C)[C@@H](O)c1ccccc1)OC)N(C)C(=O)[C@@H](NC(=O)[C@@H](NC)C(C)C)C(C)C", "note": "[MMAE, monomethyl auristatin E] (H-[NMeV]V[Dil][Dolaproine]-X2)", "values": [{"measurement": "microtubule comets (prevalence and growth speed)", "setting": "[1]", "result": "complete elimination of visible comets"}, {"measurement": "nano-encapsulation efficiency", "setting": "[2]", "result": "undetectable"}, {"measurement": "toxicity at equivalent doses", "setting": "[3]", "result": "severely toxic and above the maximum tolerated dose"}]}, {"smiles": "C=CCOC(=O)Nc1ccc(C(OC(=O)N(C)[C@H](C(=O)NC(C(=O)N(C)[C@@H]([C@@H](C)CC)[C@@H](CC(=O)N2CCC[C@H]2[C@H](OC)[C@@H](C)C(=O)N[C@H](C)[C@@H](O)c2ccccc2)OC)C(C)C)C(C)C)C(=O)NCC)cc1", "note": "(stereo partly drawn) [C16proMMAE, Alloc-SIL-C16-MMAE] (X1-[NMeV][ξV][Dil][Dolaproine]-X2)", "values": [{"measurement": "enhanced cytotoxicity with sub-micromolar Pd-NP", "setting": "[4]; HT1080, sub-micromolar Pd-NP", "result": "> 10", "unit": "fold"}, {"measurement": "IC50", "setting": "[4]; Homo sapiens, HT-1080, 72 h, read-out: IC50 upon Pd-NP activation", "result": 0.015, "unit": "nM"}, {"measurement": "level of prodrug activation based on cytotoxicity", "setting": "[4]; Pd-NP concentration 50 μM", "result": "> 90", "unit": "%"}, {"measurement": "concentration at which cytotoxic upon activation by Pd-NP", "setting": "[4]; with Pd-NP", "result": "< 0.1", "unit": "nM"}, {"measurement": "turn-on capacity in cytotoxicity", "setting": "[4]; with vs without Pd-NP", "result": "> 70,000 ×"}, {"measurement": "drug-induced weight loss", "setting": "[5]; HT1080 or MC38 tumor-bearing animals", "result": "did not show drug-induced weight loss"}, {"measurement": "blood chemistry analysis", "setting": "[5]; MC38 tumor-bearing mice", "result": "no signs of drug-induced liver or kidney toxicity"}, {"measurement": "release of the prodrug payload from the nanoformulation", "setting": "[6]", "result": "< 10", "unit": "%"}, {"measurement": "microtubule comets", "setting": "[1]; 1 μM C16proMMAE combined with 35 μM Pd-NP", "result": "complete elimination of visible comets"}, {"measurement": "microtubule comets (prevalence and growth speed)", "setting": "[1]", "result": "not substantially perturbed"}, {"measurement": "tumor growth", "setting": "[7]", "result": "effective at slowing tumor growth"}, {"measurement": "tumor growth at 2 days following the 2nd round of treatment", "setting": "[7]", "result": "completely blocked"}, {"measurement": "impact on cell growth", "setting": "[8]", "result": "no detectable impact on cell growth"}, {"measurement": "tumor growth at 2 days following the 2nd round of treatment", "setting": "[9]; combined with Pd-NP", "result": "completely blocked"}, {"measurement": "reduction in prodrug dose required for controlling tumor growth in vivo", "setting": "[9]; compared to Alloc-DOX", "result": 50, "unit": "fold"}]}]}
